Source: paper PMC9655119, “Sustained Activation of CLR/RAMP Receptors by Gel-Forming Agonists” (International Journal of Molecular Sciences, 2022)

Legend:
[1] = Release of Analog C-6 from the gel solution in vivo (single-dose pharmacokinetics); design: species or system Sprague–Dawley rats; conditions: plasma
Description: Single-dose pharmacokinetics of the Analog C-6 gel solution was investigated in male Sprague–Dawley rats. Rats received a gel solution via the subcutaneous route, and blood samples were collected at pre-dose, 8 h, 1, 2, 4, and 8 days via a catheter that had been cannulated to the jugular vein. Plasma was obtained by centrifugation, and the peptide level in samples was determined by specific ADM EIA (Phoenix Pharmaceuticals Inc.).

human CLR/RAMP1 = biological target: T1, human CLR/RAMP1 (Homo sapiens, UniProt O60894+Q16602); assay: CLR/RAMP1 receptor-activation assay (DiscoverX cAMP Hunter, HitHunter cAMP XS+); assay type: cell-based
T1 construct: host or cells: 1321N1 cells (cAMP Hunter cell line)
Description: (§1) The bioactivity of peptide analogs was studied using CLR/RAMP1, CLR/RAMP2, and CLR/RAMP3 assays by DiscoveRx (Fremont, CA, USA) in cells that stably express human CLR/RAMP1 (1321N1 cells), CLR/RAMP2 (CHO-K1 cells), or CLR/RAMP3 (CHO-K1 cells). The dose-dependent stimulatory effect of agonists was studied in duplicate, at 10 different concentrations. Determination of the half-maximal effective concentration (EC50) was performed using a 10-point dose-response curves. The starting concentration was 1.0 μM, and it was serially diluted 3-fold, in DMSO.
Cells were seeded in a total volume of 20 μL into 384-well microplates, and the activity was determined using the DiscoverX HitHunter cAMP XS + assay. Before the assay, media was aspirated from cells and replaced with 15 μL 2:1 HBSS/10 mM Hepes: cAMP XS + Ab reagent. Intermediate dilution of samples was performed to generate 4X sample in assay buffer, and 5 μL of the 4X sample was added to cells and incubated at 37°C. Vehicle concentration was 1%.
The chemiluminescent signal was read with a PerkinElmer instrument.

human CLR/RAMP2 = biological target: T2, human CLR/RAMP2 (Homo sapiens, UniProt O60895+Q16602); assay: CLR/RAMP2 receptor-activation assay (PathHunter β-Arrestin); assay type: cell-based
T2 construct: host or cells: CHO-K1 cells (PathHunter β-Arrestin cell line)
Description: as §1
In this assay, the CLR was fused in frame with a small enzyme donor fragment ProLink™ (PK). The receptor was co-expressed with a fusion protein of β-arrestin and an N-terminal deletion mutant of β-galactosidase (i.e., enzyme acceptor). Activation of the CLR/RAMP2 receptor stimulated the binding of β-arrestin to the PK-tagged receptor and led to an increase in enzyme activities which can then be measured with the PathHunter detection reagents. PathHunter cell lines were seeded in a total volume of 20 μL into 384-well microplates and incubated at 37 °C prior to the assay. Intermediate dilution of samples was performed to generate 5X samples in the assay buffer. A 5 μL aliquot of 5X sample was added to cells and incubated at 37 °C for 90 min. Vehicle concentration was 1%.

[2] = Passage of peptide molecules through Centricon filters; assay type: physicochemical
Description: To evaluate whether gel formation reduces the movement of peptide molecules in solution, we used the Centricon® filters (Millipore) to separate samples and the carriers based on their molecular mass. The sample is monomeric peptide, and the carrier is the self-assembled gel. […] Ten minutes later, the solution was diluted to the 0.1% level, and aliquots of the samples were dispensed into separate Centricon columns (30,000 MW cutoff). The monomeric peptides and gel molecules were separated by centrifugation for 15 min (2000× g). The level of peptide in the elutes was determined by specific EIAs (Phoenix Pharmaceuticals Inc., Burlingame, CA, USA).

[3] = Microrheology viscosity assay (Rheosense viscometer); assay type: physicochemical; conditions: 5% peptide solution in 5% glucose
Description: We initially determined the gel-forming capability of peptides qualitatively based on a visual examination of the gel solution using a tube-tapping method. Once we have a rough estimate of the gel-forming capability, we quantitatively determine the viscosity of select peptides using a Rheosense viscometer (Rheosense Inc.; http://www.rheosense.com, accessed on 1 December 2019). In the visual assay, aliquots of peptides were dissolved in an aqueous solution (i.e., de-ionized water, saline, or 5% glucose solution). The peptide that dissolves instantly and stays as a clear solution without obvious macroscopic change in viscosity at 20 min after mixing was considered soluble. If macroscopic particles of peptides remained in the solution for 20 min after mixing, the peptide was considered insoluble. […] In addition, we quantitatively determined the viscosity of Analog C-6 and control peptides using a viscometer. The Rheosense microrheology viscometer uses a “chip” flow channel to quantify the viscosity of a solution as small as 50 μL. After loading the aqueous solution, the sample was injected through the flow channel with multiple pressure sensors, and the rheological properties were determined based on the standard principles of rheometry.

T2 sequence (Q16602 23-461): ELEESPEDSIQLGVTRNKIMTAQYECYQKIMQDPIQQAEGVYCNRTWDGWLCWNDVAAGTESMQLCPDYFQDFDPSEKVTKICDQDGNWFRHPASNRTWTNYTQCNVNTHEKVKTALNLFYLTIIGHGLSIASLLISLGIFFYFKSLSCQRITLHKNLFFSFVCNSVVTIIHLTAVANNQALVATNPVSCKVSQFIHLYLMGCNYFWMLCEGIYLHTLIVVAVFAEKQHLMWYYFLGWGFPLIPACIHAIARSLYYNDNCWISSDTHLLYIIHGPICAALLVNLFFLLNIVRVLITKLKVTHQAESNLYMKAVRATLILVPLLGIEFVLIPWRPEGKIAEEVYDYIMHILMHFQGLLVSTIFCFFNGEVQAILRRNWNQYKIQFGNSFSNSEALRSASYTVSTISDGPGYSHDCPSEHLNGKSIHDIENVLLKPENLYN
T2 sequence (O60895 43-175): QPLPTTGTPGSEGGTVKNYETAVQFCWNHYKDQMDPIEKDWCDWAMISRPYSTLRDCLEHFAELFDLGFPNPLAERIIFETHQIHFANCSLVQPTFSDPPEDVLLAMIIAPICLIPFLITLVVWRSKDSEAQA
T1 sequence (Q16602 23-461): as the sequence (Q16602 23-461) above
T1 sequence (O60894 27-148): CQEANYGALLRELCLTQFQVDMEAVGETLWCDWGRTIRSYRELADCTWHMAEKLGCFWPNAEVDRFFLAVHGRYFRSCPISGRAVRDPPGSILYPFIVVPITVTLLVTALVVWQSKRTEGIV

time during which circulating level was significantly increased ([1]; male Sprague–Dawley rats, s.c., 32 mg in 16% gel solution, ADM EIA, n = 3) [h] | Tmax ([1]; male, Sprague-Dawley, rat, sc, 32 mg, read-out: time of peak circulating peptide level) [h] | EC50 (human CLR/RAMP1; 1321N1 cells stably expressing human CLR/RAMP1, cAMP read-out, 10-point dose-response in duplicate, start 1.0 μM, 3-fold serial dilution in DMSO) [nM] | Emax (human CLR/RAMP1; percentage of positive control β-CGRP, read-out: CLR/RAMP1 Max Activity) [%] | EC50 (human CLR/RAMP2; CHO-K1 cells stably expressing human CLR/RAMP2, β-arrestin recruitment, 90 min at 37 °C, 10-point dose-response in duplicate, start 1.0 μM, 3-fold dilution in DMSO) [nM] | Emax (human CLR/RAMP2; […], percentage of positive control ADM1-52, read-out: CLR/RAMP2 Max Activity) [%] | solubility in saline solution ([2]; 0.1% peptide in saline) | viscosity compared with water [3] | Molecule | peptide level in Centricon elute, 5% and 20% solution groups versus 0.1% solution ([2]; Centricon 30,000 MW cutoff, 2000× g 15 min, 5% glucose, samples diluted to 0.1% after 10 min, CGRP or ADM EIA, triplicate)
8 to 48 | 8 | 24 | 78 | 2.8 | 87 | low solubility | – | CCCCCCCCCCCCCCCC(=O)NCCCC[C@H](N)C(=O)NCC(=O)N[C@H]1CSSC[C@@H](C(=O)N[C@H](C(=O)N[C@H](C(=O)N[C@@H](CCC(N)=O)C(=O)N[C@@H](CCCCN)C(=O)N[C@@H](CC(C)C)C(=O)N[C@@H](C)C(=O)N[C@@H](Cc2c[nH]cn2)C(=O)N[C@@H](CCC(N)=O)C(=O)N[C@H](C(=O)N[C@@H](Cc2ccc(O)cc2)C(=O)N[C@@H](CCC(N)=O)C(=O)N[C@@H](Cc2ccccc2)C(=O)N[C@H](C(=O)N[C@@H](CC(=O)O)C(=O)N[C@@H](CCCCN)C(=O)N[C@@H](CC(=O)O)C(=O)N[C@@H](CCCCN)C(=O)N[C@@H](CC(=O)O)C(=O)N[C@@H](CC(N)=O)C(=O)N[C@H](C(=O)N[C@@H](C)C(=O)N2CCC[C@H]2C(=O)N[C@@H](CCCNC(=N)N)C(=O)N[C@@H](CO)C(=O)N[C@@H](CCCCN)C(=O)N[C@H](C(=O)N[C@@H](CO)C(=O)N2CCC[C@H]2C(=O)N[C@@H](CCC(N)=O)C(=O)NCC(=O)N[C@@H](Cc2ccc(O)cc2)C(N)=O)[C@@H](C)CC)C(C)C)[C@@H](C)O)[C@@H](C)CC)C(C)C)[C@@H](C)O)NC(=O)[C@H]([C@@H](C)O)NC(=O)CNC(=O)[C@H](Cc2ccccc2)NC(=O)[C@H](CCCNC(=N)N)NC1=O [Analog C-6] | –
– | – | – | – | – | – | – | significantly higher than that of water | adrenomedullin [ADM, reference compound] | lower than that of the 0.1% solution group
